Patent US20100298141A1, “SUBSTITUTED PYRIDINE N-OXIDE HERBICIDES” (E. I. DU PONT DE NEMOURS AND COMPANY, priority 2007, published 2010)

Assays:
barnyardgrass = assay: Test C flooded paddy test; format: in vivo, Echinochloa crus-galli; details: Flood
In short: (§1)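 In-water treatment: compound dosed into 3 cm flood over soil, water level unchanged throughout. Controls run alongside; visual assessment at day 13–15.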

rice = assay: Test C flooded paddy test; format: in vivo, Oryza sativa; details: Flood
In short: as §1

Surinam grass = assay: Test C pre-/postemergence test; format: in vivo, Brachiaria decumbens; details: Postemergence; for Plant response rating, Surinam Grass: scale 0 to 100, 0 no effect, 100 complete control
In short: (§2)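 Seeds were planted and treated preemergence with test chemical in a non-phytotoxic solvent mixture containing surfactant. Postemergence applications of the same formulation went onto plants 2 to 18 cm tall (1- to 4-leaf stage). A dash marks no test result.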

wheat = assay: Test A pre-/postemergence greenhouse test; format: in vivo, Triticum aestivum; details: for Wheat plant response rating: 0 to 100 scale
In short: (§3)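 Two application timings were run side by side in the greenhouse. Before emergence, compound went onto the soil surface of loam–sand pots as a directed spray; after emergence, plants at 2–10 cm and the one- to two-leaf stage were treated. Visual injury versus controls was rated at approximately day ten.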

Goosegrass = assay: Test C pre-/postemergence test; format: in vivo, Eleusin indica; details: Postemergence; for Plant response rating, Goosegrass: scale 0 to 100, 0 no effect, 100 complete control
In short: as §2

common ragweed = assay: Test C pre-/postemergence test; format: in vivo, Ambrosia elation; details: Postemergence; for Plant response rating, Ragweed: scale 0 to 100, 0 no effect, 100 complete control
In short: as §2

velvetleaf [1] = assay: Test C pre-/postemergence test; format: in vivo, Abutilon theophrasti; details: Postemergence; for Plant response rating, Velvetleaf: scale 0 to 100, 0 no effect, 100 complete control
In short: as §2

wild oat = assay: Test C pre-/postemergence test; format: in vivo, Avena fatua; details: Postemergence; for Plant response rating, Oat, Wild: scale 0 to 100, 0 no effect, 100 complete control
In short: as §2

lambsquarters = assay: Test C pre-/postemergence test; format: in vivo, Chenopodium album; details: Postemergence; for Plant response rating, Lambsquarters: scale 0 to 100, 0 no effect, 100 complete control
In short: as §2

giant foxtail [2] = assay: Test A pre-/postemergence greenhouse test; format: in vivo, Setaria faberi; details: for Foxtail, Giant plant response rating: 0 to 100 scale
In short: as §3

bermudagrass = assay: Test C pre-/postemergence test; format: in vivo, Cynodon dactylon; details: Postemergence; for Plant response rating, Bermudagrass: scale 0 to 100, 0 no effect, 100 complete control
In short: as §2

redroot pigweed = assay: Test A pre-/postemergence greenhouse test; format: in vivo, Amaranthus retroflexus; details: for Pigweed plant response rating: 0 to 100 scale
In short: as §3

velvetleaf [3] = assay: Test A pre-/postemergence greenhouse test; format: in vivo, Abutilon theophrasti; details: for Velvetleaf plant response rating: 0 to 100 scale
In short: as §3

johnsongrass = assay: Test C pre-/postemergence test; format: in vivo, Sorghum halepense; details: Postemergence; for Plant response rating, Johnsongrass: scale 0 to 100, 0 no effect, 100 complete control
In short: as §2

corn = assay: Test A pre-/postemergence greenhouse test; format: in vivo, Zea mays; details: for Corn plant response rating: 0 to 100 scale
In short: as §3

giant foxtail [4] = assay: Test C pre-/postemergence test; format: in vivo, Setaria faberii; details: Postemergence; for Plant response rating, Foxtail, Giant: scale 0 to 100, 0 no effect, 100 complete control
In short: as §2

duck salad = assay: Test C flooded paddy test; format: in vivo, Heteranthera limosa; details: Flood
In short: as §1

[5] = 31 g ai/ha, scale 0 to 100 (0 no effect, 100 complete control)
[6] = 62 g ai/ha, scale 0 to 100, 0 no effect, 100 complete control, 13 to 15 days
[7] = 125 g ai/ha, scale 0 to 100, 0 no effect, 100 complete control, 13 to 15 days
[8] = 250 g ai/ha, scale 0 to 100, 0 no effect, 100 complete control, 13 to 15 days
[9] = Postemergence, 125 g ai/ha, 0 is no effect, 100 is complete control
[10] = Postemergence, 500 g ai/ha, 0 is no effect, 100 is complete control
[11] = Preemergence, 125 g ai/ha, 0 no effect, 100 complete control
[12] = Preemergence, 500 g ai/ha, 0 to 100 scale where 0 is no effect and 100 is complete control

CC(c1c(C(F)(F)F)nn(C)c1Cl)S(=O)(=O)c1ccc(Cl)c[n+]1[O-] (racemic) [Compound 40]
Plant response rating, Barnyardgrass (barnyardgrass; [5]): 0
Plant response rating, Barnyardgrass (barnyardgrass; [6]): 15
Plant response rating, Barnyardgrass (barnyardgrass; [7]): 60
Plant response rating, Barnyardgrass (barnyardgrass; [8]): 65
Plant response rating, Rice (rice; [5]): 0
Plant response rating, Rice (rice; [6]): 15
Plant response rating, Rice (rice; [7]): 60
Plant response rating, Rice (rice; [8]): 65
Plant response rating (0 to 100), Surinam Grass (Surinam grass; 31 g ai/ha): 0
Plant response rating (0 to 100), Surinam Grass (Surinam grass; 62 g ai/ha): 0
Plant response rating, Surinam Grass (Surinam grass; 125 g ai/ha): 0
Plant response rating, Surinam Grass (Surinam grass; 250 g ai/ha): 0
Wheat plant response rating (wheat; [9]): 30
Wheat plant response rating (wheat; [10]): 50
Wheat plant response rating (wheat; [11]): 0
Plant response rating, Wheat (wheat; [12]): 40
Plant response rating (0 to 100), Goosegrass (Goosegrass; 31 g ai/ha): 0
Plant response rating, Goosegrass (Goosegrass; 62 g ai/ha): 0
Plant response rating, Goosegrass (Goosegrass; 125 g ai/ha): 0
Plant response rating, Goosegrass (Goosegrass; 250 g ai/ha): 0
Plant response rating (0 to 100), Ragweed (common ragweed; 31 g ai/ha): 0
Plant response rating (0 to 100), Ragweed (common ragweed; 62 g ai/ha): 0
Plant response rating, Ragweed (common ragweed; 125 g ai/ha): 0
Plant response rating, Ragweed (common ragweed; 250 g ai/ha): 5
Plant response rating (0 to 100), Velvetleaf (velvetleaf [1]; 31 g ai/ha): 0
Plant response rating (0 to 100), Velvetleaf (velvetleaf [1]; 62 g ai/ha): 0
Plant response rating, Velvetleaf (velvetleaf [1]; 125 g ai/ha): 0
Plant response rating, Velvetleaf (velvetleaf [1]; 250 g ai/ha): 0
Plant response rating (0 to 100), Oat, Wild (wild oat; 31 g ai/ha): 0
Plant response rating, Oat, Wild (wild oat; 62 g ai/ha): 0
Plant response rating, Oat, Wild (wild oat; 125 g ai/ha): 0
Plant response rating, Oat, Wild (wild oat; 250 g ai/ha): 5
Plant response rating (0 to 100), Lambsquarters (lambsquarters; 31 g ai/ha): 0
Plant response rating, Lambsquarters (lambsquarters; 62 g ai/ha): 0
Plant response rating, Lambsquarters (lambsquarters; 125 g ai/ha): 0
Plant response rating, Lambsquarters (lambsquarters; 250 g ai/ha): 0
Foxtail, Giant plant response rating (giant foxtail [2]; [9]): 80
Foxtail, Giant plant response rating (giant foxtail [2]; [10]): 90
Foxtail, Giant plant response rating (giant foxtail [2]; [11]): 90
Plant response rating, Foxtail, Giant (giant foxtail [2]; [12]): 100
Plant response rating (0 to 100), Bermudagrass (bermudagrass; 31 g ai/ha): 0
Plant response rating, Bermudagrass (bermudagrass; 62 g ai/ha): 0
Plant response rating, Bermudagrass (bermudagrass; 125 g ai/ha): 10
Plant response rating, Bermudagrass (bermudagrass; 250 g ai/ha): 30
Pigweed plant response rating (redroot pigweed; [9]): 30
Pigweed plant response rating (redroot pigweed; [10]): 60
Pigweed plant response rating (redroot pigweed; [11]): 60
Plant response rating, Pigweed (redroot pigweed; [12]): 100
Velvetleaf plant response rating (velvetleaf [3]; [9]): 50
Velvetleaf plant response rating (velvetleaf [3]; [10]): 60
Velvetleaf plant response rating (velvetleaf [3]; [11]): 0
Plant response rating, Velvetleaf (velvetleaf [3]; [12]): 50
Plant response rating (0 to 100), Johnsongrass (johnsongrass; 31 g ai/ha): 0
Plant response rating, Johnsongrass (johnsongrass; 62 g ai/ha): 20
Plant response rating, Johnsongrass (johnsongrass; 125 g ai/ha): 20
Plant response rating, Johnsongrass (johnsongrass; 250 g ai/ha): 60
Corn plant response rating (corn; [9]): 0
Corn plant response rating (corn; [10]): 40
Corn plant response rating (corn; [11]): 0
Plant response rating, Corn (corn; [12]): 0
Plant response rating (0 to 100), Foxtail, Giant (giant foxtail [4]; 31 g ai/ha): 0
Plant response rating, Foxtail, Giant (giant foxtail [4]; 62 g ai/ha): 0
Plant response rating, Foxtail, Giant (giant foxtail [4]; 125 g ai/ha): 0
Plant response rating, Foxtail, Giant (giant foxtail [4]; 250 g ai/ha): 0
Plant response rating, Ducksalad (duck salad; [5]): 20
Plant response rating, Ducksalad (duck salad; [6]): 45
Plant response rating, Ducksalad (duck salad; [7]): 80
Plant response rating, Ducksalad (duck salad; [8]): 90
